Results reported in US20180185302A1, “METHODS FOR DOWNREGULATING APOBEC3B” (Regents of the University of Minnesota, priority 2015, published 2018).
“Also recorded” adds a separate entry of the source. Residues, ends and D or L forms follow the SMILES beside them. *: point of attachment. Cbz = O=C(OCc1ccccc1)*

Columns and labels:
APOBEC3B [1] = assay: inhibitor pretreatment before PMA-induced APOBEC3B upregulation in MCF10A cells (RT-qPCR); type: cell-based, human; settings: for suppression of PMA-induced APOBEC3B mRNA induction: 30-minute pretreatment with inhibitor, then PMA 25 ng/mL six hours
Procedure: PMA is a well-known agonist of PKC, but it also affects other cellular processes. To determine whether APOBEC3B induction by PMA occurs through PKC signal transduction or an alternative mechanism, we leveraged a panel of existing PKC inhibitors that each vary with respect to class selectivity. MCF10A cells were pre-treated for 30 minutes with varying concentrations of the pan-PKC inhibitor Gö6983 (Gschwendt et al., FEBS Lett. 392:77-80, 1996) and then treated for six hours with PMA (25 ng/mL). […] As additional controls, MCF10A cells were pretreated in parallel with the phosphoinositol 3 kinase (PI3K) inhibitor, LY294002, and the mitogen-activated protein kinase kinase (MEK) inhibitor, U0126, prior to PMA induction (FIGS. 2B and 2C).
(§1) For induction experiments, 2.5×10^5 cells were plated in a 6-well plate 1 day prior to drug treatment. PMA was then added to the media and incubated at 37° C. with 5% CO2 for six hours unless otherwise indicated. Cells were harvested, RNA was extracted, and RT-qPCR was performed as previously reported (Refsland et al. 2010, Nucleic Acids Res 38:4274-4284). For experiments utilizing inhibitors, cells were pretreated with inhibitors 30 minutes prior to PMA induction (25 ng/mL). PMA (Thermo Fisher Scientific, Inc., Waltham, Mass.), cyclohexamide (Acros Organics, Thermo Fisher Scientific, Inc., Waltham, Mass.), Gö6983 (Cayman Chemical co., Ann Arbor, Mich.), LY294002 (EMD Chemicals, Merck KGaA, Darmstadt, Germany), U0126 (EMD Chemicals, Merck KGaA, Darmstadt, Germany), AEB071 (Medchemexpress, Monmouth Junction, N.J.), Gö6976 (Enzo Life Sciences, Inc., Farmingdale, N.Y.), BAY 11-7082 (R&D Systems, INc., Minneapolis, Minn.), and MG132 (Thermo Fisher Scientific, Inc., Waltham, Mass.) were stored as recommended. NIKi/Compound 31 was synthesized as described (Li et al., 2013, Bioorganic & Medicinal Chemistry Letters 23:1238-1244).

MCF10A cells = assay: morphology and viability of MCF10A cells under inhibitor; type: cell-based, human; settings: low concentrations of Gö6983 (5 μM range), data not shown
Procedure: PMA is a well-known agonist of PKC, but it also affects other cellular processes. To determine whether APOBEC3B induction by PMA occurs through PKC signal transduction or an alternative mechanism, we leveraged a panel of existing PKC inhibitors that each vary with respect to class selectivity. MCF10A cells were pre-treated for 30 minutes with varying concentrations of the pan-PKC inhibitor Gö6983 (Gschwendt et al., FEBS Lett. 392:77-80, 1996) and then treated for six hours with PMA (25 ng/mL). […] APOBEC3B was suppressed to background levels with 5 μM Gö6983, as well as higher concentrations (FIG. 2A). […] As additional controls, MCF10A cells were pretreated in parallel with the phosphoinositol 3 kinase (PI3K) inhibitor, LY294002, and the mitogen-activated protein kinase kinase (MEK) inhibitor, U0126, prior to PMA induction (FIGS. 2B and 2C).

TNFα = TNFα mRNA expression in PMA-treated MCF10A cells (RT-qPCR); type: cell-based, human; settings: titration of inhibitor, compared with APOBEC3B inhibition
Procedure: FIG. 3. Non-canonical NFκB signaling is responsible for APOBEC3B upregulation by PMA. […] MCF10A cells were treated with PMA following a 30-minute pretreatment with the indicated concentrations of each inhibitor. APOBEC3B mRNA expression is reported as the mean of three independent RT-qPCR reactions normalized to TBP (error bars report SD from triplicate assays). (C) Histogram depicting NFκB subunit mRNA levels in MCF10A cells treated with PMA or vehicle control. Expression was determined by RNA-seq and is reported as FKPM and normalized to TBP. […] MCF10A cells were treated with PMA following treatment with varying concentrations of TPCA-1. TNFα (light) and APOBEC3B (dark) mRNA levels are reported as the mean of three independent RT-qPCR reactions normalized to TBP (error bars report SD from triplicate assays). The dotted lines denote previously reported in vitro IC50 values for IKKα and IKKβ inhibition by TPCA-1 (Podolin et al., 2005, J Pharmacol Exp Ther. 312:373-381). (E) Histogram showing the kinetics of NFKBIA upregulation PMA. MCF10A cells were treated with PMA for the indicated times and mRNA values were quantified as in FIG. 3A. […]
Canonical signaling is known to require IKKβ, whereas non-canonical NFκB signaling is strictly dependent on IKKα-catalyzed phosphorylation of p100. […] As an additional control, TNFα, which is regulated by the canonical pathway, was analyzed.

[2] = test system: IKKβ (canonical) over IKKα (non-canonical); settings: reported in vitro IC50 values (Podolin et al., 2005); cited from earlier work
APOBEC3B [3] = assay: PMA induction of APOBEC3B mRNA in MCF10A cells (RT-qPCR); type: cell-based, human; settings: 10 μg/mL cyclohexamide with PMA
Procedure: A panel of immortalized normal human epithelial cells lines and breast cancer cell lines was treated with PMA or equal amounts of DMSO as a negative control, and previously validated reverse transcription quantitative PCR (RT-qPCR) assays were used to measure mRNA levels of all eleven human APOBEC family members. APOBEC3B mRNA was induced specifically by PMA treatment of several lines including the immortalized normal breast epithelial cell line MCF10A (FIG. 1A and FIG. 6). Under standard cell culture conditions, MCF10A expresses low levels of APOBEC3B and APOBEC3F, even lower levels of APOBEC3G and APOBEC3H, high levels of APOBEC3C, and undetectable levels of all other APOBEC family members.
APOBEC3B was induced with as little as 1 ng/mL PMA, and its induction was dose responsive and near maximal at 25 ng/mL PMA (FIG. 1B, histogram). APOBEC3B mRNA levels correlated with a rise in steady-state protein levels as measured by immunoblotting with a rabbit anti-APOBEC3B monoclonal antibody (described in U.S. Provisional Patent Application No. 62/186,109. filed Jun. 29, 2015) and with enzymatic activity as measured by a gel-based single-stranded DNA cytosine deamination assay (FIG. 1B). […] APOBEC3B protein and activity levels lagged shortly behind mRNA levels and persisted through the duration of the time course (FIG. 1C, immunoblot and polyacrylamide gel). APOBEC3B upregulation may be a direct result of signal transduction as the kinetics of upregulation were not affected by simultaneously treating cells with the protein translation inhibitor cyclohexamide (FIG. 1D).
as §1

MCF-7 xenograft tumor = assay: MCF-7 xenograft model for tamoxifen resistance; type: in vivo, mice
Description: Human cancer cell lines, such as those listed above, and many others, upon engraftment into mice (e.g., subcutaneously, intraperotoneally, or otherwise), provide model systems for human tumor evolution, heterogeneity, and drug resistance. For instance, the estrogen-receptor positive breast cancer cell line MCF7L is a model for endocrine therapy and resistance.
The MCF-7 system may be adapted for evaluating APOBEC3 mutagenesis and drug resistance by creating derivative lines expressing low APOBEC3B (e.g., shRNA transduced) and high APOBEC3B (empty vector transduced) using lentivirus transduction followed by selection with 1 μg/ml puromycin for one week (Burns et al., 2013, Nature 494:366-370) and determine whether endogenous APOBEC3B contributes to the development of tamoxifen resistance. Five-million engineered cells are injected subcutaneously (xenografted) into athymic/ovariectomized nude-Foxnlnu (4-5 weeks old, The Jackson Laboratory, Bar Harbor, Me.). Each animal's drinking water is supplemented with 1 μM estradiol to provide continuous hormonal stimulation. The xenografted cells form large tumors within 150 days post-engraftment and depleting endogenous APOBEC3B causes a modest delay in tumor growth (dark square versus dark circle symbols in FIG. 8).

With `Cc1ccc(S(=O)(=O)/C=C/C#N)cc1` [BAY 11-7082] the “suppression of PMA-induced APOBEC3B mRNA induction” value (shortened to “suppression”) (APOBEC3B [1]) was “dose responsive inhibition; also recorded: strong dose-responsive drops”.

For `CN(C)CCCn1cc(C2=C(c3c[nH]c4ccccc34)C(=O)NC2=O)c2ccccc21` [BIM-1, bisindolylmaleimide-1], the “suppression” value (APOBEC3B [1]) was “inhibited; also recorded: nearly identical dose dependent suppression”.

In the case of `Cn1c2ccccc2c2c3c(c4c5ccccc5n(CCC#N)c4c21)CNC3=O` [Gö6976], the “suppression” value (APOBEC3B [1]) is reported as “inhibited”.

For `COc1ccc2c(c1)c(C1=C(c3c[nH]c4ccccc34)C(=O)NC1=O)cn2CCCN(C)C` [Gö6983], the “morphological defects or viability issues” value (MCF10A cells) was “No morphological defects or viability issues”, the “suppression” value (APOBEC3B [1]) was “inhibited; also recorded: dose responsive suppression” and the “concentration that suppressed APOBEC3B to background levels” value (APOBEC3B [1]; 30-minute pretreatment, PMA 25 ng/mL six hours) was 5 µM.

With `CC(C)C[C@@H](C=O)NC(=O)[C@H](CC(C)C)NC(=O)[C@H](CC(C)C)NC(=O)OCc1ccccc1` [MG132] (Cbz-Leu-Leu-Leu-aldehyde) the “suppression” value (APOBEC3B [1]) was “dose responsive inhibition; also recorded: decreased in a dose dependent manner”.

For `NC(=O)Nc1sc(-c2ccc(F)cc2)cc1C(N)=O` [TPCA-1], the “inhibition of TNFα expression” value (TNFα) is listed as “inhibited by much lower concentrations”, the “selectivity for IKKβ (canonical) over IKKα (non-canonical)” value [2] is listed as 22 fold and the “suppression” value (APOBEC3B [1]) is listed as “near the IC50 for IKKα, not IKKβ; also recorded: inhibited closer to the reported IC50 of IKKα”.

For `N#CC(=C(/N)Sc1ccccc1N)/C(C#N)=C(\N)Sc1ccccc1N` [U0126], the “suppression” value (APOBEC3B [1]) was “not and no suppression”.

In the case of `C[C@@H]1C[C@@H]([C@H](O)CC2CC(=O)NC(=O)C2)C(=O)[C@@H](C)C1` [cyclohexamide], the “effect on kinetics of PMA-induced APOBEC3B upregulation” value (APOBEC3B [3]) is reported as “not affected”.

In the case of `CC/C(=C(\c1ccccc1)c1ccc(OCCN(C)C)cc1)c1ccccc1` [tamoxifen], the “tumor growth of MCF-7 derivative lines” value (MCF-7 xenograft tumor; 500 μg 5 days/week subcutaneous injection, APOBEC3B high and low lines, mice) is reported as “arrested the growth of both derivative lines for several months”, the “development of resistance, cells expressing high levels of APOBEC3B” value (MCF-7 xenograft tumor; 500 μg 5 days/week subcutaneous, year-long experiment) is reported as “invariably developed resistance” and the “development of resistance, APOBEC3B low cell masses” value (MCF-7 xenograft tumor; 500 μg 5 days/week subcutaneous, year-long experiment, n=5 animals/condition) is reported as “only one of the APOBEC3B low cell masses became resistant”.
